From patent US10968225B2, “Compounds and compositions for the treatment of cystic fibrosis” (Fondazione Istituto Italiano Di Tecnologia, priority 2017, dated 2021)

biological target: T1, mutant CFTR (Homo sapiens, UniProt P13569, DEL508-508); experiment: Fluorescence (HS-YFP) assay for CFTR activity, corrector assay; assay type: cell-based; conditions: CFBE41o- and FRT cells with stable expression of mutant CFTR, read-out: activity (EC50)
T1 construct: expressed in transfected cells
T1 sequence (P13569 with tags, fused parts or gaps DEL508-508): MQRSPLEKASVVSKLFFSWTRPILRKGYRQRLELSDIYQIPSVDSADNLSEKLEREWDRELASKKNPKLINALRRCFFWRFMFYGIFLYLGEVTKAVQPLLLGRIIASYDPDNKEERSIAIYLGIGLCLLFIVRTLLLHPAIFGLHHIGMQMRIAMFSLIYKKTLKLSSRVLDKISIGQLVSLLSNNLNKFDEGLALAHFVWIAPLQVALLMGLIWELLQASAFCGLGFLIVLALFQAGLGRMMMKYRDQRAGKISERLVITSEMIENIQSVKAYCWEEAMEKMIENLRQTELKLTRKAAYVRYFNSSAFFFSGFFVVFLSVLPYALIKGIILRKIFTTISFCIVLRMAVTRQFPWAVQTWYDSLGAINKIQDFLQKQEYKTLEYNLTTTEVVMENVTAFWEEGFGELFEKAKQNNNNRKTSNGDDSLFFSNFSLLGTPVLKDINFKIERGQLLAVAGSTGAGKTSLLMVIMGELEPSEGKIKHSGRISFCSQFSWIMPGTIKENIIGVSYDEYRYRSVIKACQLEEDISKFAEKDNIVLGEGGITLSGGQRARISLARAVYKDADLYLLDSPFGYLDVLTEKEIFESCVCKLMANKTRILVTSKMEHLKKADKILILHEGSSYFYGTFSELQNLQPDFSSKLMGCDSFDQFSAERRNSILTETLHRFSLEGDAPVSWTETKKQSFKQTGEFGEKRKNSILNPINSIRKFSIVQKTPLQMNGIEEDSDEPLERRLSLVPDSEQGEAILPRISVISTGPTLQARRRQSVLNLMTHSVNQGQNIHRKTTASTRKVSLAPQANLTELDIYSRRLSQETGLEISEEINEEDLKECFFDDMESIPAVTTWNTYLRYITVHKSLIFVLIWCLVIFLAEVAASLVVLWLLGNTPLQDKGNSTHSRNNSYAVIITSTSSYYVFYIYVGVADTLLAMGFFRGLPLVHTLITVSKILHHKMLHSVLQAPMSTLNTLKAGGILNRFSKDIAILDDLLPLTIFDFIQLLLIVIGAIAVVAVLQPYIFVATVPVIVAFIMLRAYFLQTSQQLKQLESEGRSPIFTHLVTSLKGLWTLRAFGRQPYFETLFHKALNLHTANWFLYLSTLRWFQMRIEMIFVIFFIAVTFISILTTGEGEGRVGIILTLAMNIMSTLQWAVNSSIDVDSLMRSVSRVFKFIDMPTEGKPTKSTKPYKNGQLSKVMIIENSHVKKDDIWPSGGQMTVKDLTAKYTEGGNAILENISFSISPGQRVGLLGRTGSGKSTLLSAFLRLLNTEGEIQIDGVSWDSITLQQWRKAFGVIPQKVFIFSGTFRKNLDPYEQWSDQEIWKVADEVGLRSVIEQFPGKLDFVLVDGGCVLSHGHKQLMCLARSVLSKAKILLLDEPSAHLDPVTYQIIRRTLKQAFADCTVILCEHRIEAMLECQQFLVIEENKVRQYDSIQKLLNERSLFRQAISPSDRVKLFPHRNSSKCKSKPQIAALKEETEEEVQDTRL

SMILES | EC50 [nM]
CN(C(=O)c1cccc(-n2nc(C(F)(F)F)c3c2CCN(S(=O)(=O)c2ccccc2)C3)c1)c1ccc2c(c1)OCO2 [Compound 007, 3-[5-(Benzenesulfonyl)-3-(trifluoromethyl)-6,7-dihydro-4H-pyrazolo[4,3-c]pyridin-1-yl]-N-(1,3-benzodioxol-5-yl)-N-methyl-benzamide] | < 1000
CC(=O)N1CCc2c(c(C(F)(F)F)nn2-c2cccc(C(=O)N(C)c3ccc4c(c3)OCO4)c2)C1 [Compound 004, 3-[5-Acetyl-3-(trifluoromethyl)-6,7-dihydro-4H-pyrazolo[4,3-c]pyridin-1-yl]-N-(1,3-benzodioxol-5-yl)-N-methyl-benzamide] | < 1000
Cc1nc2cc(F)c(N(C)C(=O)c3cccc(-n4nc(C(F)(F)F)c5c4CCN(C(=O)OC(C)(C)C)C5)c3)cc2o1 [Compound 036, tert-Butyl 1-[3-[(5-fluoro-2-methyl-1,3-benzoxazol-6-yl)-methylcarbamoyl]phenyl]-3-(trifluoromethyl)-6,7-dihydro-4H-pyrazolo[4,3-c]pyridine-5-carboxylate] | < 1000
COC(=O)c1ccccc1S(=O)(=O)N1CCc2c(c(C(F)(F)F)nn2-c2cccc(C(=O)N(C)c3ccc4c(c3)OCO4)c2)C1 [Compound 060, Methyl 2-[[1-[3-[1,3-benzodioxol-5-yl(methyl)carbamoyl]phenyl]-3-(trifluoromethyl)-6,7-dihydro-4H-pyrazolo[4,3-c]pyridin-5-yl]sulfonyl]benzoate] | < 1000
Cc1cn2cc(N(C)C(=O)c3cccc(-n4nc(C(F)(F)F)c5c4CCN(C(=O)C(C)(C)C)C5)c3)ccc2n1 [Compound 091, 3-[5-(2,2-Dimethylpropanoyl)-3-(trifluoromethyl)-6,7-dihydro-4H-pyrazolo[4,3-c]pyridin-1-yl]-N-methyl-N-(2-methylimidazo[1,2-a]pyridin-6-yl)benzamide] | 1000 to 2000
COC(=O)c1cccc(S(=O)(=O)N2CCc3c(c(C(F)(F)F)nn3-c3cccc(C(=O)N(C)c4ccc5c(c4)OCO5)c3)C2)c1 [Compound 059, Methyl 3-[[1-[3-[1,3-benzodioxol-5-yl(methyl)carbamoyl]phenyl]-3-(trifluoromethyl)-6,7-dihydro-4H-pyrazolo[4,3-c]pyridin-5-yl]sulfonyl]benzoate] | < 1000
Cc1nc2ncc(N(C)C(=O)c3cccc(-n4nc(C(F)(F)F)c5c4C(Oc4ccc(C(=O)O)cc4)CCC5)c3)cc2o1 (centres unmarked) [Compound 159, 4-[[1-[3-[Methyl-(2-methyloxazolo[4,5-b]pyridin-6-yl)carbamoyl]phenyl]-3-(trifluoromethyl)-4,5,6,7-tetrahydroindazol-7-yl]oxy]benzoic acid] | 1000 to 2000
CN(C(=O)c1cccc(-n2nc(C(F)(F)F)c3c2CCN(C(=O)OC(C)(C)C)C3)c1)c1ccc2c(c1)OCO2 [Compound 001, Tert-butyl 1-[3-[1,3-benzodioxol-5-yl(methyl)carbamoyl]phenyl]-3-(trifluoromethyl)-6,7-dihydro-4H-pyrazolo[4,3-c]pyridine-5-carboxylate] | < 1000
COc1cc(NC(=O)c2cccc(-n3nc(C(F)(F)F)c4c3CCN(C(=O)C(C)(C)C)C4)c2)ccn1 [Compound 083, 3-[5-(2,2-Dimethylpropanoyl)-3-(trifluoromethyl)-6,7-dihydro-4Hpyrazolo[4,3-c]pyridin-1-yl]-N-(2-methoxy-4-pyridyl)benzamide] | > 2000
CN(C(=O)c1cccc(-n2nc(C(F)(F)F)c3c2C(Oc2ccc(C(=O)O)cc2)CCC3)c1)c1ccc2c(c1)OCC2 (single isomer, unassigned) [Compound 280, (R) or (S)-4-[[(1-[3-[2,3-dihydrobenzofuran-6-yl(methyl)carbamoyl]phenyl]-3-(trifluoromethyl)-4,5,6,7-tetrahydroindazol-7-yl]oxy]benzoic acid] | < 1000
CN(C(=O)c1cccc(-n2nc(C(F)(F)F)c3c2C[C@@H]2CC[C@H]3N2C2CCC2)c1)c1ccc2c(c1)OCO2 (single isomer, unassigned) [Compound 131, (4R,7S)- or (4S,7R)—N-(Benzo[d][1,3]dioxol-5-yl)-3-(9-cyclobutyl-3-(trifluoromethyl)-5,6,7,8-tetrahydro-4,7-epiminocyclohepta[c]pyrazol-1(4H)-yl)-N-methylbenzamide] | < 1000
CN(C(=O)c1cccc(-n2nc(C(F)(F)F)c3c2C(Oc2ccc(C(=O)O)cc2)COC3)c1)c1ccc2c(c1)OCC2 (single isomer, unassigned) [Compound 283, (S) or (R)-4-[[1-[3-[2,3-dihydrobenzofuran-6-yl(methyl)carbamoyl]phenyl]-3-(trifluoromethyl)-6,7-dihydro-4H-pyrano[4,3-c]pyrazol-7-yl]oxy]benzoic acid] | 1000 to 2000
CN(C(=O)c1cccc(-n2nc(C(F)(F)F)c3c2CCN(S(=O)(=O)c2ccccc2C(=O)O)C3)c1)c1ccc2c(c1)OCO2 [Compound 062, 2-[[1-[3-[1,3-Benzodioxol-5-yl(methyl)carbamoyl]phenyl]-3-(trifluoromethyl)-6,7-dihydro-4H-pyrazolo[4,3-c]pyridin-5-yl]sulfonyl]benzoic acid] | > 2000
CN(C(=O)c1cccc(-n2nc(C(F)(F)F)c3c2C(Oc2ccc(C(=O)O)cc2)CCC3)c1)c1ccc(OC(F)F)nc1 (racemic) [Compound 314, 4-[[1-[3-[[6-(Difluoromethoxy)-3-pyridyl]-methyl-carbamoyl]phenyl]-3-(trifluoromethyl)-4,5,6,7-tetrahydroindazol-7-yl]oxy]benzoic acid] | < 1000
CN(C(=O)c1cccc(-n2nc(C(F)(F)F)c3c2CCN(S(C)(=O)=O)C3)c1)c1ccc2c(c1)OCO2 [Compound 006, N-(1,3-Benzodioxol-5-yl)-N-methyl-3-[5-methylsulfonyl-3-(trifluoromethyl)-6,7-dihydro-4H-pyrazolo[4,3-c]pyridin-1-yl]benzamide] | < 1000
COCCS(=O)(=O)N1CCc2c(c(C(F)(F)F)nn2-c2cccc(C(=O)N(C)c3ccc4c(c3)OCO4)c2)C1 [Compound 068, N-(1,3-benzodioxol-5-yl)-3-[5-(2-methoxyethylsulfonyl)-3-(trifluoromethyl)-6,7-dihydro-4H-pyrazolo[4,3-c]pyridin-1-yl]-N-methyl-benzamide] | < 1000
CN(C(=O)c1cccc(-n2nc(C(F)(F)F)c3c2C(Oc2ccc(C(N)=O)cc2)CCC3)c1)c1ccc2c(c1)OC(F)(F)O2 (centres unmarked) [Compound 162, 3-[7-(4-Carbamoylphenoxy)-3-(trifluoromethyl)-4,5,6,7-tetrahydroindazol-1-yl]-N-(2,2-difluoro-1,3-benzodioxol-5-yl)-N-methyl-benzamide] | < 1000
CN(C(=O)c1cccc(-n2nc(C(F)(F)F)c3c2CCN(S(=O)(=O)c2cccc(C(=O)O)c2)C3)c1)c1ccc2c(c1)OCO2 [Compound 061, 3-[[1-[3-[1,3-Benzodioxol-5-yl(methyl)carbamoyl]phenyl]-3-(trifluoromethyl)-6,7-dihydro-4H-pyrazolo[4,3-c]pyridin-5-yl]sulfonyl]benzoic acid] | > 2000
CN(C(=O)c1cccc(-n2nc(C(F)(F)F)c3c2CC2CCC3N2C)c1)c1ccc2c(c1)OCO2 (racemic) [Compound 023, N-(Benzo[d][1,3]dioxol-5-yl)-N-methyl-3-(9-methyl-3-(trifluoromethyl)-5,6,7,8-tetrahydro-4,7-epiminocyclohepta [c]pyrazol-1(4H)-yl)benzamide] | < 1000
[2H]C([2H])([2H])N(C(=O)c1cccc(-n2nc(C(F)(F)F)c3c2C(Oc2ccc(C(=O)O)cc2)CCC3)c1)c1ccc2c(c1)OC(F)(F)O2 (centres unmarked) [Compound 155, 4-[[1-[3-[(2,2-Difluoro-1,3-benzodioxol-5-yl)-(trideuteriomethyl)carbamoyl]phenyl]-3-(trifluoromethyl)-4,5,6,7-tetrahydroindazol-7-yl]oxy]benzoic acid] | < 1000
CN(C(=O)c1cccc(-n2nc(C(F)(F)F)c3c2CCN(C[C@H](O)CO)C3)c1)c1ccc2c(c1)OCO2 [Compound 016, N-(1,3-Benzodioxol-5-yl)-3-[5-[(2S)-2,3-dihydroxypropyl]-3-(trifluoromethyl)-6,7-dihydro-4H-pyrazolo[4,3-c]pyridin-1-yl]-N-methyl-benzamide] | < 1000
CN(C(=O)c1cccc(-n2nc(C(F)(F)F)c3c2C(Oc2ccc(C(=O)O)cc2)CCC3)c1)c1cnc2c(c1)OCC2 (single isomer, unassigned) [Compound 275, (S) or (R)-4-[[1-[3-[2,3-Dihydrofuro[3,2-b]pyridin-6-yl(methyl)carbamoyl]phenyl]-3-(trifluoromethyl)-4,5,6,7-tetrahydroindazol-7-yl]oxy]benzoic acid] | < 1000
CN(C(=O)c1cccc(-n2nc(C(F)(F)F)c3c2C(Oc2ccc(C(=O)O)c(F)c2)CCC3)c1)c1ccc2c(c1)OC(F)(F)O2 (centres unmarked) [Compound 147, 2-Fluoro-4-[[1-[3-[(2,2-difluoro-1,3-benzodioxol-5-yl)-methyl-carbamoyl]phenyl]-3-(trifluoromethyl)-4,5,6,7-tetrahydroindazol-7-yl]oxy]benzoic acid] | < 1000
CN(C(=O)c1cccc(-n2nc(C(F)(F)F)c3c2C(Oc2ccc(C(=O)O)cc2)COC3)c1)c1cnc2c(c1)OCC2 (racemic) [Compound 262, 4-[[1-[3-[2,3-Dihydrofuro[3,2-b]pyridin-6-yl(methyl)carbamoyl]phenyl]-3-(trifluoromethyl)-6,7-dihydro-4H-pyrano[4,3-c]pyrazol-7-yl]oxy]benzoic acid] | 1000 to 2000
CN(C(=O)c1cccc(-n2nc(C(F)(F)F)c3c2CCN(C[C@@H]2COC(C)(C)O2)C3)c1)c1ccc2c(c1)OCO2 [Compound 013, N-(1,3-Benzodioxol-5-yl)-3-[5-[[(4R)-2,2-dimethyl-1,3-dioxolan-4-yl]methyl]-3-(trifluoromethyl)-6,7-dihydro-4H-pyrazolo[4,3-c]pyridin-1-yl]-N-methyl-benzamide] | < 1000
Cc1nc2cc(F)c(NC(=O)c3cccc(-n4nc(C(F)(F)F)c5c4CCN(C)C5)c3)cc2o1 [Compound 047, N-(5-Fluoro-2-methyl-1,3-benzoxazol-6-yl)-3-[5-methyl-3-(trifluoromethyl)-6,7-dihydro-4H-pyrazolo[4,3-c]pyridin-1-yl]benzamide] | > 2000
